According to the CombiSolv-Exp solvation set (Vermeire and Green 2021):

Assay: solvent given as SMILES

COC=O
Settings	solvation free energy, 298 K [kcal/mol]
in C=CCCCCCCCCCCCCCC	-1.95
in CC(=O)N(C)C	-3.41
in CCCCCCCCCCCCCCCC	-1.94
in CCCCN(C=O)CCCC	-2.97
in CCOCCO	-3.08
in CN1CCCC1=O	-3.71
in CNC(C)=O	-3.15
in CS(C)=O	-3.28
in NC=O	-3.07
in O	-2.78
in [2H]O[2H]	-2.82

CN(C)CCc1ccc(O)cc1
Settings	solvation free energy, 298 K [kcal/mol]
in C=CCCCCCCC=C	-10.1
in O	-11.3

O=NN1CCOCC1
Settings	solvation free energy, 298 K [kcal/mol]
in O	-7.78

CCCCCCC(C)=O
Settings	solvation free energy, 298 K [kcal/mol]
in C1COCCO1	-6.83
in CCCCCCC	-5.68
in CN(C)C=O	-6.23
in ClC(Cl)(Cl)Cl	-6.7
in NC=O	-5.06
in O	-2.92

c1ccc2c(c1)sc1ccccc12
Settings	solvation free energy, 298 K [kcal/mol]
in CC(=O)N(C)C	-11.5
in CCCCCCCCC=CCCCCCCCC(=O)OCC(COC(=O)CCCCCCCC=CCCCCCCCC)OC(=O)CCCCCCCC=CCCCCCCCC	-10.6
in CN1CCCC1=O	-11.6
in O	-4.05

CCCCC(C)C
Settings	solvation free energy, 298 K [kcal/mol]
in C=CCCCCCCCCCCCCCC	-3.96
in CC#N	-2.99
in O	2.93

Fc1c(F)c(F)c(F)c(F)c1F
Settings	solvation free energy, 298 K [kcal/mol]
in C1CCOC1	-4.5
in C1COCCO1	-4.23
in CC(C)CC(C)(C)C	-3.53
in CC(C)OC(C)C	-4.13
in CCCCO	-3.46
in CCOCC	-4.35
in O	0.1

CN(C)Cc1ccccc1
Settings	solvation free energy, 298 K [kcal/mol]
in O	-5.05

CCC=O
Settings	solvation free energy, 298 K [kcal/mol]
in C1CCOC1	-3.82
in C=CCCCCCCCCCCCCCC	-2.47
in CC(C)CCCC(C)CCCC(C)CCCCC(C)CCCC(C)CCCC(C)C	-2.57
in CCC(C)=O	-3.85
in CCCCCCCC	-2.54
in CCCCCCCCCCCCCCCC	-2.41
in CCCCCCCCO	-4.15
in NC=O	-3.26
in O	-3.35
in [2H]O[2H]	-3.31

Clc1ccc(-c2cc(Cl)ccc2Cl)cc1
Settings	solvation free energy, 298 K [kcal/mol]
in CCCCCCCCO	-10.8

Sc1ccccc1
Settings	solvation free energy, 298 K [kcal/mol]
in O	-2.55

CC(=O)CCCC(C)C
Settings	solvation free energy, 298 K [kcal/mol]
in NC=O	-4.76
in O	-3

CCCCCCCC=O
Settings	solvation free energy, 298 K [kcal/mol]
in CCCCCCCCCCCCCCCC	-5.82
in CCCCCCCCO	-7.26
in NC=O	-4.31
in O	-2.29

OC(F)(C(F)F)C(F)(F)F (stereo unspecified)
Settings	solvation free energy, 298 K [kcal/mol]
in CO	-6.53

Cc1ccc(C(C)C)c(O)c1
Settings	solvation free energy, 298 K [kcal/mol]
in CCCO	-10.2
in CCO	-10.3
in CO	-10.3
in O	-5.81

O=C(O)CCCCCCCCC(=O)O
Settings	solvation free energy, 298 K [kcal/mol]
in CCC(C)O	-17
in CCCCCCO	-16.7
in CCCCCO	-16.9
in CCCCO	-17.1
in CCCO	-17.2

O=O
Settings	solvation free energy, 298 K [kcal/mol]
in Brc1ccccc1	1.16
in C1CCCCC1	0.75
in C1CCOC1	0.82
in C1COCCO1	1.1
in CC(C)(C)O	0.78
in CC(C)=O	0.76
in CC(C)CC(C)(C)C	0.51
in CC(C)CO	0.89
in CC(C)O	0.89
in CCC(C)=O	0.76
in CCC(C)O	0.91
in CCCC(C)=O	0.81
in CCCCC(C)=O	0.86
in CCCCCC	0.59
in CCCCCCC	0.64
in CCCCCCCC	0.7
in CCCCCCCCC	0.73
in CCCCCCCCCC	0.77
in CCCCCCCCCCC	0.79
in CCCCCCCCCCCC	0.83
in CCCCCCCCCCCCC	0.87
in CCCCCCCCCCCCCC	0.89
in CCCCCCCCCCCCCCC	0.92
in CCCCCCCCCCCCCCCC	0.94
in CCCCCCCCCCCO	1.1
in CCCCCCCCCCO	1.09
in CCCCCCCCCO	1.06
in CCCCCCCCO	1.04
in CCCCCCCO	1.02
in CCCCCCO	0.98
in CCCCCO	0.95
in CCCCO	0.93
in CCCCOCCCC	0.78
in CCCO	0.9
in CCCOCCC	0.65
in CCO	0.85
in CCOC(C)=O	0.9
in CCOCC	0.48
in CNC=O	1.12
in CO	0.82
in COC(C)=O	0.77
in Cc1ccc(C)cc1	0.83
in Cc1cccc(C)c1	0.85
in Cc1ccccc1C	0.88
in ClC(Cl)(Cl)Cl	0.71
in ClC(Cl)Cl	0.97
in ClCCCl	1.09
in ClCCl	0.9
in Clc1ccccc1	1
in Fc1ccccc1	0.56
in Ic1ccccc1	1.3
in O	2.06
in O=C1CCCC1	1.1
in O=C1CCCCC1	1.13

CCCC(O)C(C)C (stereo unspecified)
Settings	solvation free energy, 298 K [kcal/mol]
in CCCCCCCC	-5.34
in CCCCCCCCCC	-5.46

C=CCCCC=C
Settings	solvation free energy, 298 K [kcal/mol]
in CCCCOC(C)=O	-4.42
in CCOC(C)=O	-4.6
in O	1.16

O=S1(=O)CCCC1
Settings	solvation free energy, 298 K [kcal/mol]
in O	-8.61

CCCBr
Settings	solvation free energy, 298 K [kcal/mol]
in C=CCCCCCCCCCCCCCC	-3.56
in ClC(Cl)(Cl)Cl	-4.17
in O	-0.56

Clc1ccccc1Cl
Settings	solvation free energy, 298 K [kcal/mol]
in C1CCOC1	-7.11
in C1COCCO1	-7.01
in CCCCCC	-6.14
in CCCCCCC	-6.01
in CCCCCCCCCCCCCCCC	-6.04
in CCCCCCCCO	-5.95
in CN(C)C=O	-6.82
in ClC(Cl)(Cl)Cl	-6.79
in N#Cc1ccccc1	-6.82
in NC=O	-4.55
in O	-1.4

O=C(C(=O)c1ccccc1)c1ccccc1
Settings	solvation free energy, 298 K [kcal/mol]
in C1CCOC1	-12.6
in C1COCCO1	-12.5
in CC(=O)N(C)C	-12.6
in CC(C)(C)O	-10.8
in CC(C)=O	-12.5
in CC(C)CC(C)(C)C	-10.2
in CC(C)CC(C)O	-10.8
in CC(C)CCO	-10.8
in CC(C)CO	-10.8
in CC(C)O	-10.8
in CC(C)OC(C)C	-11.2
in CC(C)OCCO	-11.8
in CCC(C)(C)O	-11.1
in CCC(C)=O	-12.5
in CCC(C)O	-10.9
in CCCC(C)O	-10.9
in CCCCC(CC)CO	-10.8
in CCCCCC	-10.3
in CCCCCCC	-10.3
in CCCCCCCC	-10.3
in CCCCCCCCC=CCCCCCCCC(=O)OCC(COC(=O)CCCCCCCC=CCCCCCCCC)OC(=O)CCCCCCCC=CCCCCCCCC	-11.2
in CCCCCCCCCC	-10.3
in CCCCCCCCCCO	-10.9
in CCCCCCCCO	-10.8
in CCCCCCCO	-10.9
in CCCCCCO	-10.9
in CCCCCO	-11
in CCCCCl	-12.1
in CCCCO	-11
in CCCCOC(C)=O	-12.2
in CCCCOCCO	-11.8
in CCCO	-11.1
in CCCOCCO	-11.8
in CCO	-11.1
in CCOC(C)=O	-12.3
in CCOCC	-11.8
in CCOCCO	-11.9
in CO	-11.2
in COC(C)(C)C	-11.8
in COC(C)=O	-12.4
in COC(C)CCO	-11.8
in ClC(Cl)(Cl)Cl	-12
in ClCCCl	-12.7
in Clc1ccccc1	-12.4
in Fc1ccccc1	-12.4
in O	-6.64
in O=C1CCCCC1	-12.6

CCNc1nc(NC(C)CC)nc(OC)n1 (stereo unspecified)
Settings	solvation free energy, 298 K [kcal/mol]
in O	-9.89

CCCCCCCCC(C)=O
Settings	solvation free energy, 298 K [kcal/mol]
in O	-2.34

CCC=CCC=CCC=CCCCCCCCC(=O)OC
Settings	solvation free energy, 298 K [kcal/mol]
in O	-3.47

CC(=O)c1c(C)[nH]n(-c2ccccc2)c1=O
Settings	solvation free energy, 298 K [kcal/mol]
in O	-9.89

CN(C)C
Settings	solvation free energy, 298 K [kcal/mol]
in CC(C)=O	-2.56
in CCCCCC	-2.63
in CCCCCCC	-2.44
in CCCCO	-2.91
in CCCO	-3.49
in CCO	-3.64
in CN(C)C=O	-2.41
in ClC(Cl)(Cl)Cl	-2.89
in ClC(Cl)Cl	-3.9
in O	-3.2

CCCC(C)(O)CC (stereo unspecified)
Settings	solvation free energy, 298 K [kcal/mol]
in CCCCCCCC	-5.4
in CCCCCCCCCC	-5.34

CC(=O)Oc1ccccc1
Settings	solvation free energy, 298 K [kcal/mol]
in O	-4.78

CCCCCCCCCCCCCCCCCCO
Settings	solvation free energy, 298 K [kcal/mol]
in CC(C)O	-14.9
in CCC(C)=O	-13.8
in CCCCCCCCC=CCCCCCCCC(=O)OCC(COC(=O)CCCCCCCC=CCCCCCCCC)OC(=O)CCCCCCCC=CCCCCCCCC	-12.4
in CCCCCCCCCCO	-14.9
in CCCCCCCCO	-14.9
in CCCCCCO	-14.9
in CCCCOCCCC	-14.5
in CCOCC	-15
in O	-2.43

CC(=O)Cc1ccccc1
Settings	solvation free energy, 298 K [kcal/mol]
in O	-5.62

ON=C1CCCCC1
Settings	solvation free energy, 298 K [kcal/mol]
in CCCCCC	-6.16

CCCCCCCCCCCCc1ccccc1
Settings	solvation free energy, 298 K [kcal/mol]
in CCC(C)=O	-11.5
in CCCCCCC	-11.8
in CCO	-10
in O=Cc1ccco1	-10.4
in OCCOCCO	-7.69

C=C(C)C1CCC2(CO)CCC3(C)C(CCC4C5(C)CCC(O)C(C)(C)C5CCC43C)C12 (stereo unspecified)
Settings	solvation free energy, 298 K [kcal/mol]
in CC(C)=O	-27.9
in CCCCCCO	-27.3
in CCCCCO	-27.6
in CCCCO	-28
in CCCO	-27.8
in CCO	-27.7
in CCOC(C)=O	-27.8
in CO	-27.3
in COC(C)=O	-27.4
in ClC(Cl)Cl	-28.4
in ClCCl	-27.7
in O	-14.2

CCC(O)CC
Settings	solvation free energy, 298 K [kcal/mol]
in O	-4.35

CCNc1nc(NCC)nc(SC)n1
Settings	solvation free energy, 298 K [kcal/mol]
in O	-10.1
